Structures can show the parent of a compound that is named as a salt.
Tested on: acetylcholinesterase (AchE) in the brain
Assay: Time course of inhibition of brain acetylcholinesterase (AchE) in the rat after s.c. administration (Ellman acetylthiocholine method, ex vivo)
Set-up: species or system rat (male Crl:CD (SD) BR)
Conditions: for Time of peak effect on brain AchE: at doses producing effects comparable to 9 mg/kg CHF 2060
Protocol: 1. Acetylcholinesterase inhibition
The time course of inhibition of acetylcholinesterase (AchE) in the brain was assessed in male Crl:CD (SD) BR rats (Charles River Italia), weighing between 150-250 g.
The test substances were administered by s.c. route, dissolved in 2 ml/kg of sterile saline. 9 animals/group/time were used.
Controls received the vehicle only.
At various intervals (10-60-120-240 min) after administration the rats were sacrificed by decapitation and the brains were rapidly removed, weighed and immediately placed in 1 ml of phosphate buffer 0.1M, pH 8.0, added with 1% Triton 100 (Merck).
After homogenization and centrifugation at 19943 g for 15 min at 4° C. the surnatant was separated and used for the determination of AchE activity according to the acetyltiocholine method described by Ellmann (Ellman G. L. et al., Biochem. Pharmacol. 7, 88, 1961).
The activity concentrations obtained (U/l surnatant) were individually corrected for the brain weight.

In the case of CCCCCCCNC(=O)Oc1ccc2c(c1)[C@]1(C)CCN(C)[C@@H]1N2C [Heptyl physostigmine tartrate], the “AUC 0-4 h of inhibition of brain acetylcholinesterase” value (0.3 mg/kg s.c.) is reported as 94 % inib. hr, the “AUC 0-4 h of inhibition of brain acetylcholinesterase” value (1 mg/kg s.c.) is reported as 178 % inib. hr and the “Max % inhib. of brain acetylcholinesterase” value (1 mg/kg s.c.) is reported as 54%. For the same compound, the “T max (time of the maximal inhibition)” value (1 mg/kg s.c.) was 1 h, the “Factor of reduction of effect between 120 and 240 min” value (1 mg/kg s.c., 120 to 240 min) was 1.4 and the “Brain acetylcholinesterase activity, U/1 surn.” value (1 mg/kg s.c., 10 min) was 2246 ± 115 U/1 surn. For the same compound, the “Brain acetylcholinesterase % inhib.” value (1 mg/kg s.c., 10 min, ** P < 0.01) was 29%, the “Brain acetylcholinesterase activity, U/1 surn.” value (1 mg/kg s.c., 60 min) was 1166 ± 85 U/1 surn and the “Brain acetylcholinesterase % inhib.” value (1 mg/kg s.c., 60 min, ** P < 0.01) was 54%. For the same compound, the “Brain acetylcholinesterase activity, U/1 surn.” value (1 mg/kg s.c., 120 min) was 1506 ± 115 U/1 surn, the “Brain acetylcholinesterase % inhib.” value (1 mg/kg s.c., 120 min, ** P < 0.01) was 52% and the “Brain acetylcholinesterase activity, U/1 surn.” value (1 mg/kg s.c., 240 min) was 1867 ± 52 U/1 surn. The “Brain acetylcholinesterase % inhib.” value (1 mg/kg s.c., 240 min, ** P < 0.01) was 36%.

In the case of CCCCCCCNC(=O)Oc1ccc2c(c1)C1(C)CCN(C)OC1N2C [CHF 2060, N-heptyl-geneserine L-tartrate], the “AUC 0-4 h of inhibition of brain acetylcholinesterase” value (9 mg/kg s.c.) is reported as 127 % inib. hr, the “Max % inhib. of brain acetylcholinesterase” value (9 mg/kg s.c.) is reported as 45% and the “T max (time of the maximal inhibition)” value (9 mg/kg s.c.) is reported as no less than 4 h. The “Brain acetylcholinesterase % inhib.” value (9 mg/kg s.c., 10 min) was 11%, the “Brain acetylcholinesterase activity, U/1 surn.” value (9 mg/kg s.c., 10 min) was 3094 ± 197 U/1 surn and the “Brain acetylcholinesterase activity, U/1 surn.” value (9 mg/kg s.c., 60 min) was 2294 ± 150 U/1 surn. For the same compound, the “Brain acetylcholinesterase % inhib.” value (9 mg/kg s.c., 60 min, ** P < 0.01) was 29%, the “Brain acetylcholinesterase activity, U/1 surn.” value (9 mg/kg s.c., 120 min) was 2205 ± 171 U/1 surn and the “Brain acetylcholinesterase % inhib.” value (9 mg/kg s.c., 120 min, ** P < 0.01) was 33%. For the same compound, the “Brain acetylcholinesterase activity, U/1 surn.” value (9 mg/kg s.c., 240 min) was 1565 ± 80 U/1 surn, the “Brain acetylcholinesterase % inhib.” value (9 mg/kg s.c., 240 min, ** P < 0.01) was 45% and the “AUC 0-4 h of inhibition of brain acetylcholinesterase” value (27 mg/kg s.c.) was 190 % inib. hr. For the same compound, the “Max % inhib. of brain acetylcholinesterase” value (27 mg/kg s.c.) was 68%, the “T max (time of the maximal inhibition)” value (27 mg/kg s.c.) was no less than 4 h and the “Factor of increase of effect between 120 and 240 min” value (27 mg/kg s.c., 120 to 240 min) was 1.4. For the same compound, the “Brain acetylcholinesterase % inhib.” value (27 mg/kg s.c., 10 min) was 12%, the “Brain acetylcholinesterase activity, U/1 surn.” value (27 mg/kg s.c., 10 min) was 3070 ± 117 U/1 surn and the “Brain acetylcholinesterase activity, U/1 surn.” value (27 mg/kg s.c., 60 min) was 1782 ± 164 U/1 surn. The “Brain acetylcholinesterase % inhib.” value (27 mg/kg s.c., 60 min, ** P < 0.01) was 45%, the “Brain acetylcholinesterase activity, U/1 surn.” value (27 mg/kg s.c., 120 min) was 1629 ± 38 U/1 surn and the “Brain acetylcholinesterase % inhib.” value (27 mg/kg s.c., 120 min, ** P < 0.01) was 50%. For the same compound, the “Brain acetylcholinesterase activity, U/1 surn.” value (27 mg/kg s.c., 240 min) was 914 ± 26 U/1 surn, the “Brain acetylcholinesterase % inhib.” value (27 mg/kg s.c., 240 min, ** P < 0.01) was 68% and the “Inhibition of brain AchE (qualitative)” value (s.c.) was “long-lasting inhibitor of brain AchE”. For the same compound, the “Course of effect during the 4 hrs following the treatment” value (s.c., 0-4 hrs) was “increase gradually during the 4 hrs following the treatment”, the “Duration of action compared with Heptyl physostigmine tartrate” value (s.c., 27 mg/kg vs 1 mg/kg HPYS, similar AUC) was “more sustained action” and the “Significant inhibition of brain AchE” value (s.c., 1 hr after administration (9 and 27 mg/kg), P<0,001) was 29-45%. The “Factor of increase of effect within 4 hrs in respect to the first hour” value (s.c., 4 hrs vs 1 hr (9 and 27 mg/kg)) was 1.5-1.6.

CNC(=O)Oc1ccc2c(c1)[C@]1(C)CCN(C)[C@@H]1N2C [Physostigmine] was tested, and the “AUC 0-4 h of inhibition of brain acetylcholinesterase” value (0.4 mg/kg s.c.) was 135 % inib. hr, the “Brain acetylcholinesterase activity, U/1 surn.” value (0.4 mg/kg s.c., 10 min) was 1368 ± 125 U/1 surn and the “Brain acetylcholinesterase activity, U/1 surn.” value (0.4 mg/kg s.c., 60 min) was 1483 ± 148 U/1 surn. The “Brain acetylcholinesterase activity, U/1 surn.” value (0.4 mg/kg s.c., 120 min) was 1829 ± 94 U/1 surn, the “Brain acetylcholinesterase activity, U/1 surn.” value (0.4 mg/kg s.c., 240 min) was 2234 ± 151 U/1 surn and the “Effect on brain AchE after 240 min.” value (s.c.) was “disappears after 240 min”. The “Time of peak effect on brain AchE” value (s.c.) was 10 to 60 min.

For CNC(=O)Oc1ccc2c(c1)C1(C)CCN(C)OC1N2C (stereo not drawn) [Geneserine tartrate], the “AUC 0-4 h of inhibition of brain acetylcholinesterase” value (3 mg/kg s.c.) was 133 % inib. hr, the “Max % inhib. of brain acetylcholinesterase” value (3 mg/kg s.c.) was 53-57% and the “T max (time of the maximal inhibition)” value (3 mg/kg s.c.) was 0.167 to 1 h. The “Brain acetylcholinesterase activity, U/1 surn.” value (3 mg/kg s.c., 10 min) was 1447 ± 100 U/1 surn, the “Brain acetylcholinesterase % inhib.” value (3 mg/kg s.c., 10 min, ** P < 0.01) was 53% and the “Brain acetylcholinesterase activity, U/1 surn.” value (3 mg/kg s.c., 60 min) was 1231 ± 86 U/1 surn. The “Brain acetylcholinesterase % inhib.” value (3 mg/kg s.c., 60 min, ** P < 0.01) was 57%, the “Brain acetylcholinesterase activity, U/1 surn.” value (3 mg/kg s.c., 120 min) was 2162 ± 134 U/1 surn and the “Brain acetylcholinesterase % inhib.” value (3 mg/kg s.c., 120 min, ** P < 0.01) was 28%. For the same compound, the “Brain acetylcholinesterase % inhib.” value (3 mg/kg s.c., 240 min) was 12%, the “Brain acetylcholinesterase activity, U/1 surn.” value (3 mg/kg s.c., 240 min) was 2139 ± 208 U/1 surn and the “Factor of reduction of effect 120 min. after the treatment” value (s.c., 120 min vs peak) was 1.5-2. The “Effect on brain AchE after 240 min.” value (s.c.) was “disappears after 240 min”, the “Time of peak effect on brain AchE” value (s.c.) was 10 to 60 min and the “Onset of effect compared with CHF 2060” value (s.c., vs 9 mg/kg CHF 2060, comparable AUC and maximum inhibition) was “more rapid effect”.
